Earlier results in US10106516B2, “PDE10 inhibitors and related compositions and methods” (Omeros Corporation, priority 2010, dated 2018).

Biological target: PDE10
Conditions: PDE10, in vitro binding studies; read-out: dissociation constant (Kd) for cGMP binding; cited from earlier work

In the case of `Nc1nc2c(ncn2[C@@H]2O[C@@H]3COP(=O)(O)O[C@H]3[C@H]2O)c(=O)[nH]1` [cGMP], the Kd is listed as > 9 µM.
